Measurements: patent US8895069B2, “Drug delivery system using hyaluronic acid-peptide conjugate micelle” (Postech Academy-Industry Foundation, priority 2011, dated 2014)
Ends that are not written are not given here.

Columns and labels:
[1] = Appearance / water solubility in aqueous solution; format: physicochemical; settings: PBS, final peptide concentration 1.25 mg/mL
Protocol: The anti-Flt1 peptide (GGNQWFI) (SEQ ID NO: 3) and the hyaluronic acid-peptide conjugate with a lower peptide content as prepared from Preparation Example 3 were dissolved in 4004, of PBS to have a final peptide concentration of 1.25 mg/mL, respectively. The amount of the anti-Flt1 peptide contained in each solution was measured with a changeable UV transilluminator (DUT-260, Core Bio System, Korea) by using 312 nm of light source. The formation of the hyaluronic acid-peptide micelle in an aqueous solution was confirmed by using a transmission electron microscope (TEM) (Hitachi, Tokyo, Japan). For a TEM analysis, 10 μL of the hyaluronic acid-peptide conjugate solution was dropped onto a 300 mesh copper TEM grid with a carbon film and then was dried. The average particle size was calculated out from the diameters obtained from the images of 30 particles.

[2] = target: T1, binding between Flt1-Fc and VEGF165 (Homo sapiens, UniProt P17948); assay: Inhibition of binding between Flt1-Fc and VEGF165 (chemiluminescence ELISA)
T1 construct: purchased R&D Systems
Protocol: A VEGF165 solution (with a concentration in PBS of 0.5 μg/mL) (R&D System) was put into 96-black well-plate, and reacted overnight at 4° C. to give a VEGF165-coated well. After being washed with PBS, the well was blocked with a blocking buffer (which is a BSA solution with BSA(Sigma-Aldrich) dissolved therein at a concentration of 3 wt % in a PBS buffer solution at pH 7.4) and washed again with PBS (at room temperature for 2 hours). The solutions of the anti-Flt1 peptide (GGNQWFI) (SEQ ID NO: […]) (SEQ ED NO: 3) and 500 ng/mL of Flt1-Fc (R&D systems, Minneapolis, Minn.) in a solution of BSA(Sigma-Aldrich) as dissolved in PBS (pH 7.4) at 1 wt %, or the solution of the hyaluronic acid-peptide conjugate with a lower peptide content of Preparation Example 3 test group (HA-GGNQWFI) (as prepared by conjugating 20 peptides per one HA-TBA molecule) was added to the VEGF165-coated well, and incubated at room temperature for one hour. […] Then, after the well was washed with a PBS comprising 0.05 wt % of Tween 20 three times and washed with a PBS once, the amount of the conjugated Flt1-Fc was measured with BM chemiluminescence ELISA substrate system (Victor 3 luminometer, PerkinElmer, Mass.). […]
The luminescence value of the positive control group without being treated with anti-FR1 peptide was set to be 100% and other data were normalized.

[3] = test system: vascular hyperpermeability due to diabetic retinopathy; assay: Vascular hyperpermeability due to diabetic retinopathy, streptozotocin, dextran-FITC fluorescence (Experimental Example 10); format: in vivo, Sprague Dawley (SD) male rats; settings: hyaluronic acid test group = 100%; intravitreal 10 μL, peptide 5 mg/ml; four weeks after streptozotocin
Excerpt: Four groups consisted of a hyaluronic acid test group, an anti-Flt1 peptide (GGNQWFI) (SEQ ID NO: 3) test group, a test group of the hyaluronic acid-peptide conjugate with a lower peptide content (with 20 peptides being conjugated per one molecule of HA-TBA) as prepared from Preparation Example 3 (HA-GGNQWFI), and a test group of the hyaluronic acid-peptide conjugate with a higher peptide content (with 28 peptides being conjugated per one molecule of HA-TBA) as prepared from Preparation Example 3(HA-GGNQWFI(2)). The anti-Flt1 peptide sample and the hyaluronic acid-peptide conjugate samples were made to have an identical peptide concentration of 5 mg/ml. First, each rat was injected intraperitonially with 60 mg/kg of streptozotocin dissolved in 10 mM citrate buffer at pH 4.5 in order for diabetes to be induced. In three days after the injection of streptozotocin, the rat was determined to develop diabetes when its serum concentration of glucose was at least 300 mg/dL. In a week after the injection of streptozotocin, 10 μL of each sample solution was injected into the vitroeus body. In four weeks after the injection of streptozotocin, the effect of inhibiting vascular hyperpermeability due to diabetic retinopathy was determined by the fluorescence microscopic analysis with using dextran-FITC (MW=10,000) in the same manner as set forth in Experimental Example 7-1.

[4] = Pharmacokinetics in the vitreous body after intravitreal injection; format: in vivo, Sprague Dawley (SD) male rats
Protocol: Three groups consisted of a hyaluronic acid (HA) test group, an anti-Flt1 peptide (GGNQWFI) (SEQ ID NO: 3) test group, and a test group of the hyaluronic acid-peptide conjugate with a lower peptide content as prepared from Preparation Example 3 (HA-GGNQWFI). The anti-Flt1 peptide sample and the hyaluronic acid-peptide conjugate sample were made to have an identical peptide concentration of 5 mg/ml. 10 μL of each sample solution was injected into the vitroeus body, which was sampled in 6 hours, 1 day, 3 days, 7 days, 10 days, and 14 days and stored at −20° C. until analysis. The concentration of the anti-Flt1 peptide in the vitreous body was measured with fluorescence analysis. Specifically, the vitreous body was disintegrated by using 200 μL of RIPA buffer, and then subjected to centrifugation under 14,000 g at 4° C. for 10 minutes to provide a supernatant solution. By using a spectrofluorometer (Cary Eclipse Fluorescence Spectrophotometer, Varian, Australia), the photoluminescence of each sample was measured at an excitation wave length of 280 nm and an emission wavelength of 350 nm. The vitreous body of the SD rat that was not treated at all was used as a blank control.

[5] = male, Sprague Dawley (SD), vitreous body, 50 µg, rat, single intravitreal 10 μL, peptide 5 mg/ml
[6] = rat, single intravitreal 10 μL, peptide 5 mg/ml

T1 sequence (P17948 with tags, fused parts or gaps isoform P17948-2 limits assumed): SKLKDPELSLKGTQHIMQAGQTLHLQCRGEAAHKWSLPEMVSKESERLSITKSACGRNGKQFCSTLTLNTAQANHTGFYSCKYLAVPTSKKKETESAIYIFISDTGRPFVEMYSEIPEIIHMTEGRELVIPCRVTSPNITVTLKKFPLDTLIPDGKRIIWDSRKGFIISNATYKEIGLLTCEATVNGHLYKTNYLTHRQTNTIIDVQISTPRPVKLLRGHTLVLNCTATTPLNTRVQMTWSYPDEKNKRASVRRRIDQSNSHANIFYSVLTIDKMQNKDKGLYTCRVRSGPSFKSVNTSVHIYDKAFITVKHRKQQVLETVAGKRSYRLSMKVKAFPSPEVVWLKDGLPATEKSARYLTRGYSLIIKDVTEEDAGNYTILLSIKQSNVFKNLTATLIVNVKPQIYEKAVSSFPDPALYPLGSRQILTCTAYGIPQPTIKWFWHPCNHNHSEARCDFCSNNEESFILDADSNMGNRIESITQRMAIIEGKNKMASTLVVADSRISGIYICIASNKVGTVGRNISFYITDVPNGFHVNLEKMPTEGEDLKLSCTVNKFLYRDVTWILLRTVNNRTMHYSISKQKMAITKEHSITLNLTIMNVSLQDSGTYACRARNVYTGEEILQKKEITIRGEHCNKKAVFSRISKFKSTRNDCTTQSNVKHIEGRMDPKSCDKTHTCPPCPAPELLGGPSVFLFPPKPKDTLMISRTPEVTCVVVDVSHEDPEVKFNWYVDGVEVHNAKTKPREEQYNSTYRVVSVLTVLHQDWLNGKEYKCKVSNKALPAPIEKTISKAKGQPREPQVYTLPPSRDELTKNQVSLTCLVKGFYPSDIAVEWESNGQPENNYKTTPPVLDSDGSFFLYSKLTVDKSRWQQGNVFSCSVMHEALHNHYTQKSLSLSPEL

| Substance | appearance in the aqueous solution (water solubility) [1] | inhibition of the bonding between VEGF165 and Flt1-Fc ([2]; at 200 nM) | average intensity of the fluorescence of retina (dextran-FITC) [3] [%] | Cmax [4, 5] [µg/mL] | Tmax [4, 5] [h] | time for which the concentration in the vitreous body was maintained above base line [4, 6] | inhibition of the bonding between VEGF165 and Flt1-Fc, up to ([2]; dose-dependent, 20-20000 nM peptide, positive control set to 100%) | Cmax in the vitreous body [4, 6] [µg/mL] | Tmax in the vitreous body [4, 6] [h] | AUC / bioavailability (AUC/dose) in the vitreous body ([4]; same dose, compared with anti-Flt1 peptide) |
| --- | --- | --- | --- | --- | --- | --- | --- | --- | --- | --- |
| GGNQWFI [anti-Flt1 peptide, GGNQWFI] | became turbid | failed to inhibit | 79.0±9.2 | 800 ± 700 | 24 | < 10 days |  |  |  |  |
| HA-GGNQWFI: hyaluronic acid (MW 100 kDa) conjugated with GGNQWFI, 20 peptides per one molecule of HA-TBA (also: conjugated to hyaluronic acid, about 20 peptides per HA) | became clear |  | 58.4±7.8 |  |  | at least 14 days | about 32% | 1600 ± 600 | 6 | higher AUC than that of the anti-Flt1 peptide |
